Measured values as given in patent US8518958B2, “Pyrido [2,3-D] pyrimidines and their use as kinase inhibitors” (Forma Therapeutics, Inc., priority 2006, dated 2013).

Key:
[1] = tested on: HT-29 tumor cells; experiment: Anti-proliferative activity, SRB assay; format: cell-based, human; conditions: Homo sapiens, HT-29, 72 h, 72 hours exposure, read-out: CELLULAR IC50 HT-29
Protocol: We observed the surprising finding that compounds of the invention were useful in inhibiting proliferation of HT-29 tumor cells (see Table 3).
3,000-15,000 cells/well were exposed to the test compounds at various concentrations appropriate to determine an IC50, for 72 hours, and cell proliferation was measured using the SRB assay according to Shekan et al (J Natl Cancer Inst (1990) 82, 1107-112) in order to estimate the IC50 values shown in Table 3. Briefly, cells were plated in 96 well dishes 24 hours prior to compound addition. The assay was terminated with the addition of cold TCA to a final concentration of 10% and the plates were incubated for one hour at 4° C. The plates were then washed 5 times with water and 100 μl of a Sulforhodamine B solution (4%) was added to each well. The plate was then incubated for 10 minutes at room temperature before removal of unbound dye by washing with 1% acetic acid. The bound dye was solubilized with 10 mM Trizma base and the absorbance read at OD570. Inhibitory activity of the compounds was calculated as % inhibition of cell proliferation compared to cells treated with the solvent (DMSO).

[2] = biological target: B-Raf delta1-415 (Homo sapiens, UniProt P15056); experiment: B-Raf kinase inhibition (MAPH filter plate, 33P-ATP, MEK1 substrate); conditions: read-out: Biochemical IC50 B-Raf
From the text: We characterized the in vitro inhibitory activity against protein kinases of compounds of the present invention by determining their IC50 values (see Table 2).
Kinase: B-Raf delta1-415 (e.g., Upstate Cat. No. 14-530)
Reaction Temperature: room temperature
Assay Plate: 96 well U bottom plate (Greiner, 650161)
MultiScreen-PH Plate: 96 well MAPH Filter Plates (Millipore, MAPHNOB50)
Filter Washing Solution: 0.75% H3PO4
Szintilation Liquid: Supermix Liquid Szintillator (PerkinElmer, 1200-439)
Negative Control (C−): 100 mM EDTA, no Inhibitor
Positive Control (C+): no Inhibitor
Reaction Buffer: 20 mM Mops, pH 7.0 • 10 mM MgCl2 • 0.4 mM MnCl2 • 100 mM NaCl • 1 mM DTT • 0.01% NP40
Final Assay Concentrations:
Kinase: Kinase conc. yielding 50% substrate turnover as determined in titration experiment.
Adenosine 5′-[γ-^33P]triphosphate: 12.5 μCi/ml (Amersham Biosciences, BF1000)
Pipetting Sequence: • 1) Add 10 μl 4-fold concentrated substrate in 3-fold concentrated reaction buffer to each well of assay plate • 2) Add 10 μl 4-fold concentrated inhibitor in 4% DMSO in H2O to each well except to C− and C+ wells (starting point: final inhibitor concentration 10 μM; IC50 determination based on dilution series) • 3) Add 10 μl 4% DMSO in H2O to C− and C+ wells • 4) Add 10 μl 500 mM EDTA in H2O to C− wells • 5) Add 10 μl 50 μCi/ml adenosine 5′-[γ-^33P]triphosphate in H2O+4-fold cold ATP to each well • 6) Add 10 μl 4-fold concentrated kinase in reaction buffer to each well • 7) Incubate 1 hr at room temperature • 8) Add 10 μl 50 mM EDTA in H2O to each well except to C− wells • 9) Prepare MAPH plates by adding 200 μl 0.75% H3PO4 to each well • 10) Exhaust 0.75% H3PO4 using Millipore vacuum station • 11) Add 60 μl 0.75% H3PO4 to each well of MAPH filter plate • 12) Transfer 30 μl sample per well from assay plate to corresponding well of MAPH filter plate • 13) Incubate 30 min at room temperature • 14) Wash each well of MAPH filter plates 3× with 200 μl 0.75% H3PO4 using Millipore vacuum station • 15) Add 20 μl scintillation liquid to each well of MAPH filter plate • 16) Seal MAPH filter plate • 17) Store MAPH filter plate 30 min in darkness • 18) Quantify radioactivity using scintillation counter (MicroBeta, Perkin-Elmer)

B-Raf delta1-415, sequence (P15056 416-766): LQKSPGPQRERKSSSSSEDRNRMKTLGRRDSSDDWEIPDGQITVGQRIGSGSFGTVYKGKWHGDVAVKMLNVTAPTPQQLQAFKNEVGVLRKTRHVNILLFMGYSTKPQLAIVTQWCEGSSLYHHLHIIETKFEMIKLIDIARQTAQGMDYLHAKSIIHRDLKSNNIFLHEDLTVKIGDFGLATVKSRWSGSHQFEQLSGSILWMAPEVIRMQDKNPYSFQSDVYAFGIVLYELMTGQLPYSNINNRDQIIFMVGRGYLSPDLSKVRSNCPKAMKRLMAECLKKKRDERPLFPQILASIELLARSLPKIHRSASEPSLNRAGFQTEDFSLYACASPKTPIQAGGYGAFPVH

Compound	IC50 [1]	IC50 [2]
COn1c(=O)c(-c2c(Cl)cccc2Cl)cc2cnc(Nc3ccc(N4CCOCC4)cc3)nc21 [Compound 98, 6-(2,6-Dichlorophenyl)-8-methoxy-2-(4-morpholinophenyl)-amino-pyrido[2,3-d]pyrimidin-7-one]	< 1000 nM	< 100 nM
COCCOn1c(=O)c(-c2c(Cl)cccc2Cl)cc2cnc(Nc3cc(C(=O)NCCN4CCCC4)n(C)c3)nc21 [Compound 99, 6-(2,6-Dichlorophenyl)-8-(2-methoxyethyl)oxy-2-(5-(2-pyrrolidinoethyl)aminocarbonyl-1-methyl-pyrrol-3-yl)-amino-pyrido[2,3-d]pyrimidin-7-one]	< 1000 nM	< 500 nM
COn1c(=O)c(-c2c(Cl)cccc2Cl)cc2cnc(Nc3ccc(CN4CCOCC4)cc3)nc21 [Compound 100, 6-(2,6-Dichlorophenyl)-8-methoxy-2-(4-morpholinomethylphenyl)-amino-pyrido[2,3-d]pyrimidin-7-one]	< 1000 nM	< 500 nM
COn1c(=O)c(-c2c(Cl)cccc2Cl)cc2cnc(Nc3ccc(CN4CCCC4)cc3)nc21 [Compound 101, 6-(2,6-Dichlorophenyl)-8-methoxy-2-(4-pyrrolidinomethylphenyl)-amino-pyrido[2,3-d]pyrimidin-7-one]	< 1000 nM	< 100 nM
COn1c(=O)c(-c2c(Cl)cccc2Cl)cc2cnc(NCCO)nc21 [Compound 102, 6-(2,6-Dichlorophenyl)-2-hydroxyethylamino-8-methoxy-pyrido[2,3-d]pyrimidin-7-one]	< 10000 nM	< 500 nM
Cn1cc(Nc2ncc3cc(-c4c(Cl)cccc4Cl)c(=O)n(OC[C@@H](O)CO)c3n2)cc1C(=O)NCCN1CCCC1 [Compound 103, 6-(2,6-Dichlorophenyl)-8-(2-(S)-2,3-dihydroxypropyl)oxy-2-(5-(2-pyrrolidinoethyl)aminocarbonyl-1-methyl-pyrrol-3-yl)-amino-pyrido[2,3-d]pyrimidin-7-one]	< 1000 nM	< 500 nM
COn1c(=O)c(-c2c(Cl)cccc2Cl)cc2cnc(Nc3ccc(Cn4cncn4)cc3)nc21 [Compound 104, 6-(2,6-Dichlorophenyl)-8-methoxy-2-(4-(1,2,4-triazol-1-yl)methylphenyl)-amino-pyrido[2,3-d]pyrimidin-7-one]	< 1000 nM	< 500 nM
COn1c(=O)c(-c2c(Cl)cccc2Cl)cc2cnc(Nc3ccc(N4CCCC4)cc3)nc21 [Compound 105, 6-(2,6-Dichlorophenyl)-8-methoxy-2-(4-pyrrolidinophenyl)-amino-pyrido[2,3-d]pyrimidin-7-one]	< 10000 nM	< 500 nM
COCCOn1c(=O)c(-c2cc(NC(=O)c3ccccc3)ccc2Cl)cc2cnc(Nc3ccc(N4CCN(C)CC4)cc3)nc21 [Compound 106, 6-(5-Benzoylamino-2-chloro-phenyl)-8-(2-methoxyethyl)oxy-2-(4-(4-methylpiperazino)-phenylamino)-pyrido[2,3-d]pyrimidin-7-one]	< 1000 nM	< 500 nM
COCCOn1c(=O)c(-c2cc(NC(=O)c3cccc(C(F)(F)F)c3)ccc2Cl)cc2cnc(Nc3ccc(N4CCN(C)CC4)cc3)nc21 [Compound 107, 8-(2-Methoxyethyl)oxy-2-(4-(4-methylpiperazino)-6-(5-(3-trifluoromethylbenzoyl)amino-2-chloro-phenyl)-phenylamino)-pyrido[2,3-d]pyrimidin-7-one]	< 1000 nM	< 100 nM
Cn1cc(Nc2ncc3cc(-c4c(Cl)cccc4Cl)c(=O)n(OC[C@H](O)CO)c3n2)cc1C(=O)NCCN1CCCC1 [Compound 108, 6-(2,6-Dichlorophenyl)-8-(2-(R)-2,3-dihydroxypropyl)oxy-2-(5-(2-pyrrolidinoethyl)aminocarbonyl-1-methyl-pyrrol-3-yl)-amino-pyrido[2,3-d]pyrimidin-7-one]	< 1000 nM	< 500 nM
COn1c(=O)c(-c2c(Cl)cccc2Cl)cc2cnc(NCCOC(=O)[C@@H](N)C(C)C)nc21 [Compound 109, 2-((2-(S)-2-Amino-3-methylbutanoyloxy)ethyl)-amino-6-(2,6-dichlorophenyl)-8-methoxy-pyrido[2,3-d]pyrimidin-7-one]	< 10000 nM	< 500 nM
COn1c(=O)c(-c2c(Cl)cccc2Cl)cc2cnc(Nc3ccc(N4CCCC4=O)cc3)nc21 [Compound 110, 6-(2,6-Dichlorophenyl)-8-methoxy-2-(4-(2-oxopyrrolidino)phenyl)-amino-pyrido[2,3-d]pyrimidin-7-one]	< 1000 nM	< 100 nM
COn1c(=O)c(-c2c(Cl)cccc2Cl)cc2cnc(Nc3ccc(NS(C)(=O)=O)cc3)nc21 [Compound 111, 6-(2,6-Dichlorophenyl)-8-methoxy-2-(4-methylsulfonylaminophenyl)-amino-pyrido[2,3-d]pyrimidin-7-one]	< 1000 nM	< 100 nM

The next lines start with the values.

IC50 [1]	IC50 [2]	Compound
< 1000 nM	< 500 nM	COn1c(=O)c(-c2c(Cl)cccc2Cl)cc2cnc(Nc3cc(C(=O)NCCOC(=O)[C@@H](N)C(C)C)n(C)c3)nc21 [Compound 112, 2-(5-(2-(2-(S)-2-Amino-3-methylbutanoyloxy)ethyl)aminocarbonyl-1-methyl-pyrrol-3-yl)-amino-6-(2,6-dichlorophenyl)-8-methoxy-pyrido[2,3-d]pyrimidin-7-one]
< 10000 nM	< 500 nM	COn1c(=O)c(-c2c(Cl)cccc2Cl)cc2cnc(NC3CC3)nc21 [Compound 113, 2-Cyclopropylamino-6-(2,6-dichlorophenyl)-8-methoxy-pyrido[2,3-d]pyrimidin-7-one]
< 10000 nM	< 100 nM	COn1c(=O)c(-c2c(C)cccc2C)cc2cnc(Nc3cccnc3)nc21 [Compound 114, 6-(2,6-Dimethylphenyl)-8-methoxy-2-pyrid-3-ylamino-pyrido[2,3-d]pyrimidin-7-one]
< 1000 nM	< 500 nM	COn1c(=O)c(-c2c(Cl)cccc2Cl)cc2cnc(Nc3ccc(CC(=O)NCCN4CCCC4)cc3)nc21 [Compound 115, 6-(2,6-Dichlorophenyl)-8-methoxy-2-(4-(2-pyrrolidinoethylaminocarbon-ylmethyl)phenyl)-amino-pyrido[2,3-d]pyrimidin-7-one]
< 1000 nM	< 100 nM	COn1c(=O)c(-c2c(Cl)cccc2Cl)cc2cnc(Nc3cc(C(=O)N(C)CCO)n(C)c3)nc21 [Compound 116, 6-(2,6-Dichlorophenyl)-2-(5-(N-(2-hydroxyethyl)-N-methyl-amino)carbonyl-1-methyl-pyrrol-3-yl)-amino-8-methoxy-pyrido[2,3-d]pyrimidin-7-one]
< 10000 nM	< 100 nM	COn1c(=O)c(-c2c(Cl)cccc2Cl)cc2cnc(Nc3cc(C(=O)NC[C@@H](O)CO)n(C)c3)nc21 [Compound 117, 6-(2,6-Dichlorophenyl)-2-(5-(2-(R)-2,3-dihydroxyethylamino)carbonyl-1-methyl-pyrrol-3-yl)-amino-8-methoxy-pyrido[2,3-d]pyrimidin-7-one]
< 10000 nM	< 100 nM	COn1c(=O)c(-c2c(Cl)cccc2Cl)cc2cnc(Nc3cc(C(=O)NC[C@H](O)CO)n(C)c3)nc21 [Compound 118, 6-(2,6-Dichlorophenyl)-2-(5-(2-(S)-2,3-dihydroxyethylamino)carbonyl-1-methyl-pyrrol-3-yl)-amino-8-methoxy-pyrido[2,3-d]pyrimidin-7-one]
< 1000 nM	< 100 nM	COn1c(=O)c(-c2c(Cl)cccc2Cl)cc2cnc(Nc3cccc(NS(C)(=O)=O)c3)nc21 [Compound 119, 6-(2,6-Dichlorophenyl)-8-methoxy-2-(3-methylsulfonylaminophenyl)-amino-pyrido[2,3-d]pyrimidin-7-one]
